# From article PMC10663540, “Structure-based discovery of dual pathway inhibitors for SARS-CoV-2 entry” (Nature Communications, 2023)
# Where “and” joins values, the source holds several entries; their conditions need not be identical. Equal entries are not always repeated. Where two headings read alike, the source gives them in different places.
# Legend:
# SARS-CoV-2 = format: cell-based
# in vitro = details: human
# Calu-3 cells = details: rep1-rep3
# TMPRSS2 [1] = biological target: T1, TMPRSS2 (Homo sapiens, UniProt O15393); assay: biochemical; format: biochemical; details: for inhibition at 0.000610352 µM / inhibition at 0.0012207 µM / inhibition at 0.00244141 µM / inhibition at 0.00488281 µM / inhibition at 0.00976562 µM / inhibition at 0.0195312 µM / inhibition at 0.0390625 µM / inhibition at 0.078125 µM / inhibition at 0.15625 µM / inhibition at 0.3125 µM / inhibition at 0.625 µM / inhibition at 1.25 µM / inhibition at 2.5 µM / inhibition at 5 µM: read-out: Inhibition: TMPRSS2
# Target sequence in this assay (O15393 256-492): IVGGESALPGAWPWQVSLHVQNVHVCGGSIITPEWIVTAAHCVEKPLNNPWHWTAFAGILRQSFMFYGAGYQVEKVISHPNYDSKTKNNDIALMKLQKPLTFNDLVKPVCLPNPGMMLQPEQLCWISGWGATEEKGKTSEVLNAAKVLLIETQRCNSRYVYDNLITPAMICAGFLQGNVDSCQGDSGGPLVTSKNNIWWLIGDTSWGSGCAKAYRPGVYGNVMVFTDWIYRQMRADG
# Target sequence in this assay (O15393 other isoform, or with tags, fused parts or gaps): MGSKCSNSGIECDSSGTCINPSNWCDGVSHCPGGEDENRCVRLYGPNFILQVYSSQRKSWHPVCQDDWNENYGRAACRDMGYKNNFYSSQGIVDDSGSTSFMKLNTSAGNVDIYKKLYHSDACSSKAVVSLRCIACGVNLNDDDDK
# TMPRSS2 [2] = biological target: T1, TMPRSS2
# Target sequence in this assay (O15393 with tags, fused parts or gaps): as the sequence (O15393 other isoform, or with tags, fused parts or gaps) above
# Target sequence in this assay (O15393 256-492): as the sequence (O15393 256-492) above
smiles,measurement,setting,value
CC(C)(NS(=O)(=O)c1ccc2c(Cl)cnc(N=C(N)N)c2c1)C(=O)O [UK-371804],Virus titer,"SARS-CoV-2; UK-371804 1.1 μM, Supplementary Fig. 7c",31700 TCID50/ml and 20000 TCID50/ml
same,CC50,in vitro,172 µM
same,Cytotoxicity,Calu-3 cells; 0.0128 μM,4.90% and 4.97% and 4.91%
same,Cytotoxicity,Calu-3 cells; 0.064 μM,5.03% and 5.08% and 5.05%
same,Cytotoxicity,Calu-3 cells; 8 μM,8.30% and 8.32% and 8.28%
same,Cytotoxicity,Calu-3 cells; 40 μM,11.32% and 11.36% and 11.39%
same,Cytotoxicity,Calu-3 cells; 200 μM,60.70% and 60.73% and 60.71%
same,Cytotoxicity,Calu-3 cells; 1000 μM,98.32% and 98.37% and 98.33%
same,Inhibition: TMPRSS2,"TMPRSS2 [1]; 0.038147 nM, rep1-rep4, 3.8147e-05 µM",0.08% and 2.54% and 1.84% and 2.81%
same,Inhibition: TMPRSS2,"TMPRSS2 [1]; 0.076294 nM, rep1-rep4, 7.6294e-05 µM",0.83% and 3.15% and 2.99% and 4.15%
same,Inhibition: TMPRSS2,"TMPRSS2 [1]; 0.152588 nM, rep1-rep4, 0.000152588 µM",1.86% and 5.33% and 3.17% and 6.82%
same,inhibition at 0.000305176 µM,"TMPRSS2 [1]; 0.305176 nM, rep1-rep4",5.7%
same,Inhibition: TMPRSS2,"TMPRSS2 [1]; 0.305176 nM, rep1-rep4, 0.000305176 µM",8.86% and 5.77% and 9.17%
same,IC50,"TMPRSS2 [1]; 0.5 nM TMPRSS2, 10 μM substrate, mean ± SD, four replicates",4.59 nM
same,Inhibition: TMPRSS2,"TMPRSS2 [1]; 0.610352 nM, rep1-rep4, 0.000610352 µM",13.28% and 12.75% and 14.23%
same,inhibition at 0.000610352 µM,"TMPRSS2 [1]; 0.610352 nM, rep1-rep4",10.6%
same,Inhibition: TMPRSS2,"TMPRSS2 [1]; 1.2207 nM, rep1-rep4, 0.0012207 µM",21.81% and 21.57% and 22.98%
same,inhibition at 0.0012207 µM,"TMPRSS2 [1]; 1.2207 nM, rep1-rep4",19.4%
same,Inhibition: TMPRSS2,"TMPRSS2 [1]; 2.44141 nM, rep1-rep4, 0.00244141 µM",37.42% and 35.32% and 36.99%
same,inhibition at 0.00244141 µM,"TMPRSS2 [1]; 2.44141 nM, rep1-rep4",34.9%
same,Inhibition: TMPRSS2,"TMPRSS2 [1]; 4.88281 nM, rep1-rep4, 0.00488281 µM",52.70% and 52.38% and 53.49%
same,inhibition at 0.00488281 µM,"TMPRSS2 [1]; 4.88281 nM, rep1-rep4",50.8%
same,Inhibition: TMPRSS2,"TMPRSS2 [1]; 9.76562 nM, rep1-rep4, 0.00976562 µM",69.20% and 69.17%
same,inhibition at 0.00976562 µM,"TMPRSS2 [1]; 9.76562 nM, rep1-rep4",68.8%
same,Inhibition: TMPRSS2,"TMPRSS2 [1]; 19.5312 nM, rep1-rep4, 0.0195312 µM",82.58% and 82.53% and 82.55%
same,inhibition at 0.0195312 µM,"TMPRSS2 [1]; 19.5312 nM, rep1-rep4",82.4%
same,Inhibition: TMPRSS2,"TMPRSS2 [1]; 39.0625 nM, rep1-rep4, 0.0390625 µM",90.09% and 90.26% and 90.84%
same,inhibition at 0.0390625 µM,"TMPRSS2 [1]; 39.0625 nM, rep1-rep4",90.6%
same,Inhibition: TMPRSS2,"TMPRSS2 [1]; 78.125 nM, rep1-rep4, 0.078125 µM",94.96% and 95.13% and 95.23%
same,inhibition at 0.078125 µM,"TMPRSS2 [1]; 78.125 nM, rep1-rep4",95.3%
same,Inhibition: TMPRSS2,"TMPRSS2 [1]; 156.25 nM, rep1-rep4, 0.15625 µM",97.46% and 97.80% and 98.15%
same,inhibition at 0.15625 µM,"TMPRSS2 [1]; 156.25 nM, rep1-rep4",97.9%
same,Inhibition: TMPRSS2,"TMPRSS2 [1]; 312.5 nM, rep1-rep4, 0.3125 µM",98.77% and 99.07% and 99.48%
same,inhibition at 0.3125 µM,"TMPRSS2 [1]; 312.5 nM, rep1-rep4",99.1%
same,Inhibition: TMPRSS2,"TMPRSS2 [1]; 625 nM, rep1-rep4, 0.625 µM",100.11% and 99.99% and 100.09%
same,inhibition at 0.625 µM,"TMPRSS2 [1]; 625 nM, rep1-rep4",100%
same,Inhibition: TMPRSS2,"TMPRSS2 [1]; 1250 nM, rep1-rep4, 1.25 µM",100.27% and 100.14% and 100.40%
same,inhibition at 1.25 µM,"TMPRSS2 [1]; 1250 nM, rep1-rep4",101%
same,Inhibition: TMPRSS2,"TMPRSS2 [1]; 2500 nM, rep1-rep4, 2.5 µM",100.86% and 100.80% and 100.93%
same,inhibition at 2.5 µM,"TMPRSS2 [1]; 2500 nM, rep1-rep4",101%
same,Inhibition: TMPRSS2,"TMPRSS2 [1]; 5000 nM, rep1-rep4, 5 µM",102.04% and 102.07% and 102.13%
same,inhibition at 5 µM,"TMPRSS2 [1]; 5000 nM, rep1-rep4",101%
CN(C)C(=O)COC(=O)Cc1ccc(OC(=O)c2ccc(NC(=N)N)cc2)cc1 [Camostat],Virus titer,"SARS-CoV-2; Camostat 1.1 μM, Supplementary Fig. 7b",7460 TCID50/ml and 6320 TCID50/ml and 12600 TCID50/ml
same,Virus titer,"SARS-CoV-2; Camostat 3.3 μM, Supplementary Fig. 7b",26200 TCID50/ml and 15900 TCID50/ml and 20000 TCID50/ml
same,CC50,in vitro,173 µM
same,Cytotoxicity,Calu-3 cells; 0.0128 μM,0.76% and 0.62% and 0.69%
same,Cytotoxicity,Calu-3 cells; 0.064 μM,2.27% and 2.13% and 2.46%
same,Cytotoxicity,Calu-3 cells; 8 μM,7.46% and 7.33% and 7.34%
same,Cytotoxicity,Calu-3 cells; 40 μM,10.06% and 10.11% and 10.29%
same,Cytotoxicity,Calu-3 cells; 200 μM,58.17% and 58.19% and 58.30%
same,Cytotoxicity,Calu-3 cells; 1000 μM,96.27% and 96.26% and 96.22%
same,Inhibition: TMPRSS2,TMPRSS2 [1]; 38.15 pM,2.63% and 1.07% and 2.97% and 3.20%
same,Inhibition: TMPRSS2,TMPRSS2 [1]; 76.29 pM,3.24% and 1.14% and 2.29% and 3.03%
same,Inhibition: TMPRSS2,TMPRSS2 [1]; 0.000152588 µM,4.34% and 0.64% and 2.45% and 2.60%
same,Inhibition: TMPRSS2,TMPRSS2 [1]; 0.000305176 µM,3.31% and 1.96% and 3.39% and 4.38%
same,Inhibition: TMPRSS2,TMPRSS2 [1]; 0.000610352 µM,3.86% and 5.10% and 6.39%
same,Inhibition: TMPRSS2,TMPRSS2 [1]; 0.0012207 µM,7.07% and 9.81% and 8.80%
same,Inhibition: TMPRSS2,TMPRSS2 [1]; 0.00244141 µM,17.35% and 18.09% and 18.86%
same,Inhibition: TMPRSS2,TMPRSS2 [1]; 0.00488281 µM,31.26% and 30.95% and 31.85%
same,Inhibition: TMPRSS2,TMPRSS2 [1]; 0.00976562 µM,51.72% and 52.80% and 52.15%
same,Inhibition: TMPRSS2,TMPRSS2 [1]; 0.0195312 µM,77.54% and 78.82% and 77.32%
same,Inhibition: TMPRSS2,TMPRSS2 [1]; 0.0390625 µM,94.79% and 94.98% and 94.57%
same,Inhibition: TMPRSS2,TMPRSS2 [1]; 0.078125 µM,99.75% and 99.96% and 99.42%
same,Inhibition: TMPRSS2,TMPRSS2 [1]; 0.15625 µM,100.65% and 100.24%
same,Inhibition: TMPRSS2,TMPRSS2 [1]; 0.3125 µM,99.93% and 100.23% and 99.75%
same,Inhibition: TMPRSS2,TMPRSS2 [1]; 0.625 µM,100.21% and 100.53% and 100.35%
same,Inhibition: TMPRSS2,TMPRSS2 [1]; 1.25 µM,99.64% and 100.51%
same,Inhibition: TMPRSS2,TMPRSS2 [1]; 2.5 µM,100.23% and 100.42% and 100.20%
same,Inhibition: TMPRSS2,TMPRSS2 [1]; 5 µM,99.87% and 100.54% and 99.70%
same,inhibition at 0.000610352 µM,TMPRSS2 [1],6.23%
same,inhibition at 0.0012207 µM,TMPRSS2 [1],9.58%
same,inhibition at 0.00244141 µM,TMPRSS2 [1],17.5%
same,inhibition at 0.00488281 µM,TMPRSS2 [1],31.5%
same,inhibition at 0.00976562 µM,TMPRSS2 [1],52.1%
same,inhibition at 0.0195312 µM,TMPRSS2 [1],77.3%
same,inhibition at 0.0390625 µM,TMPRSS2 [1],94.7%
same,inhibition at 0.078125 µM,TMPRSS2 [1],99.7%
same,inhibition at 0.15625 µM,TMPRSS2 [1],100%
same,inhibition at 0.3125 µM,TMPRSS2 [1],100%
same,inhibition at 0.625 µM,TMPRSS2 [1],100%
same,inhibition at 1.25 µM,TMPRSS2 [1],100%
same,inhibition at 2.5 µM,TMPRSS2 [1],100%
same,inhibition at 5 µM,TMPRSS2 [1],100%
O=C(O)CN(CCN(CC(=O)O)CC(=O)O)CC(=O)O [EDTA],Tm of TMPRSS2,TMPRSS2 [2],51.7 °C and 51.6 °C
